Laboratory results reported in patent publication US9771369B2, “Compounds and methods for kinase modulation, and indications therefor” (Plexxikon Inc., priority 2014, dated 2017).

Each compound was assayed against c-Kit kinase (Homo sapiens (Human), UniProt P10721) (assay: c-Kit biochemical assay (AlphaScreen kinase activity)).
Method in brief: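 AlphaScreen: c-Kit phosphorylates biotin-(E4Y)3 (100 nM) at 10 μM ATP, pH 7.2 HEPES buffer with Mg/Mn, 5% DMSO, 1 h room temperature; streptavidin donor and PY30 acceptor beads detect product. Second format: 100 μM ATP, 30 nM biotin-(E4Y)10, pH 7.5. IC50 from 8-point 1:3 dilution curves.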

Sequence of c-Kit kinase (P10721 26-976): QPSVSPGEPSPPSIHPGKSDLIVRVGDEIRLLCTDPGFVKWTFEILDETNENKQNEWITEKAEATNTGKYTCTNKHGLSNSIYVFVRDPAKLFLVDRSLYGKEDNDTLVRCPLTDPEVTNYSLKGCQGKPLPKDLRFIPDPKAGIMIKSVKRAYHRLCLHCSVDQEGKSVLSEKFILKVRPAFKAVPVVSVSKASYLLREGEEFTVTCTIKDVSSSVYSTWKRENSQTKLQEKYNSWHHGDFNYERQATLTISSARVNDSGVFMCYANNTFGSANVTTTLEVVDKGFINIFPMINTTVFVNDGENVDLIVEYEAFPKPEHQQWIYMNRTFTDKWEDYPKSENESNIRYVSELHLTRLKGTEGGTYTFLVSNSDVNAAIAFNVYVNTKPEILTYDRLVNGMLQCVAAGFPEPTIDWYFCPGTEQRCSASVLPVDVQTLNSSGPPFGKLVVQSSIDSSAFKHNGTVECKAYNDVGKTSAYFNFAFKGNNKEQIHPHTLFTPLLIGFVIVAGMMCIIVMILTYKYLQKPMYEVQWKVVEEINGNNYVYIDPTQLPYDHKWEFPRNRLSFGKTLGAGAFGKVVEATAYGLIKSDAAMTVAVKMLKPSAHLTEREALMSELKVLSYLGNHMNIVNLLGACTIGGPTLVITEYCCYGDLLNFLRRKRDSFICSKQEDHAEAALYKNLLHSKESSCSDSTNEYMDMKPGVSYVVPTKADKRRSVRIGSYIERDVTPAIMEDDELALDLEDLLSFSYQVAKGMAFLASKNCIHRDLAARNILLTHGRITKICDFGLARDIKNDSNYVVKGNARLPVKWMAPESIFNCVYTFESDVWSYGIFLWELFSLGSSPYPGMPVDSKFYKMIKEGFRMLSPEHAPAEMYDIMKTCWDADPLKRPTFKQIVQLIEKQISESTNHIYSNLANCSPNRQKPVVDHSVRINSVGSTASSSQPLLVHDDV

`Cc1nc(C2(C)CCN(c3ncnc4[nH]c(-c5ccc(C#N)cc5)cc34)CC2)[nH]c1-c1ccc2c(c1)OCO2` [P-3159, 4-[4-[4-[5-(1,3-benzodioxol-5-yl)-4-methyl-1H-imidazol-2-yl]-4-methyl-1-piperidyl]-7H-pyrrolo[2,3-d]pyrimidin-6-yl]benzonitrile] was tested. Which IC50 did it give?
Its IC50 is 0.0001 to 1 µM.

Which IC50 does the source give for `CCOc1ccc(-c2[nH]c(C3(C)CCN(c4ncnc5[nH]c(-c6ccc(C#N)cc6)cc45)CC3)nc2C)cc1C` [P-3160, 4-[4-[4-[5-(4-ethoxy-3-methyl-phenyl)-4-methyl-1H-imidazol-2-yl]-4-methyl-1-piperidyl]-7H-pyrrolo[2,3-d]pyrimidin-6-yl]benzonitrile] here?
The IC50 was 0.0001 to 1 µM.

For `CCOc1ccc(-c2[nH]c(C3(C)CCN(c4ncnc5[nH]c(-c6ccc(C#N)cc6)cc45)CC3)nc2C)cc1` [P-3161, 4-[4-[4-[5-(4-ethoxyphenyl)-4-methyl-1H-imidazol-2-yl]-4-methyl-1-piperidyl]-7H-pyrrolo[2,3-d]pyrimidin-6-yl]benzonitrile], which IC50 is on record?
The IC50 was 0.0001 to 1 µM.

How did the IC50 turn out when `Cc1nc(C2CCN(c3ncnc4[nH]c(-c5ccc(C#N)cc5)cc34)CC2)[nH]c1-c1ccc(C(F)F)cc1` [P-3162, 4-[4-[4-[5-[4-(difluoromethyl)phenyl]-4-methyl-1H-imidazol-2-yl]-1-piperidyl]-7H-pyrrolo[2,3-d]pyrimidin-6-yl]benzonitrile] was run?
Its IC50 is 1 to 10 µM.

With `COc1ccc(-c2[nH]c(C3(C)CCN(c4ncnc5[nH]c(-c6ccc(C#N)cc6)cc45)CC3)nc2C)cc1F` [P-3163, 4-[4-[4-[5-(3-fluoro-4-methoxy-phenyl)-4-methyl-1H-imidazol-2-yl]-4-methyl-1-piperidyl]-7H-pyrrolo[2,3-d]pyrimidin-6-yl]benzonitrile] as the compound, how does the IC50 read?
The IC50 was 0.0001 to 1 µM.

For `Cc1nc(C2(C)CCN(c3ncnc4[nH]c(-c5ccc(C#N)cc5)cc34)CC2)[nH]c1-c1ccc(C(F)F)cc1` [P-3164, 4-[4-[4-[5-[4-(difluoromethyl)phenyl]-4-methyl-1H-imidazol-2-yl]-4-methyl-1-piperidyl]-7H-pyrrolo[2,3-d]pyrimidin-6-yl]benzonitrile], which IC50 is on record?
The IC50 was 0.0001 to 1 µM.

With `Cc1cc2c(N3CCC(C)(c4nc(C)c(-c5ccc(C(F)(F)F)cc5)[nH]4)CC3)ncnc2[nH]1` [P-3165, 6-methyl-4-[4-methyl-4-[4-methyl-5-[4-(trifluoromethyl)phenyl]-1H-imidazol-2-yl]-1-piperidyl]-7H-pyrrolo[2,3-d]pyrimidine] as the compound, how does the IC50 read?
Its IC50 is 1 to 10 µM.

With `COc1cccc(-c2[nH]c(C3(C)CCN(c4ncnc5[nH]c(C)cc45)CC3)nc2C)c1` [P-3166, 4-[4-[5-(3-methoxyphenyl)-4-methyl-1H-imidazol-2-yl]-4-methyl-1-piperidyl]-6-methyl-7H-pyrrolo[2,3-d]pyrimidine] as the compound, how does the IC50 read?
The IC50 was 1 to 10 µM.

With `COc1cccc(-c2[nH]c(C3(C)CCN(c4ncnc5[nH]c(-c6ccc(C#N)cc6)cc45)CC3)nc2C)c1` [P-3167, 4-[4-[4-[5-(3-methoxyphenyl)-4-methyl-1H-imidazol-2-yl]-4-methyl-1-piperidyl]-7H-pyrrolo[2,3-d]pyrimidin-6-yl]benzonitrile] as the compound, how does the IC50 read?
Its IC50 is 0.0001 to 1 µM.

With `COc1cccc(-c2[nH]c(C3(C)CCN(c4ncnc5[nH]c(-c6cnn(C(F)F)c6)cc45)CC3)nc2C)c1` [P-3168, 6-[1-(difluoromethyl)pyrazol-4-yl]-4-[4-[5-(3-methoxyphenyl)-4-methyl-1H-imidazol-2-yl]-4-methyl-1-piperidyl]-7H-pyrrolo[2,3-d]pyrimidine] as the compound, how does the IC50 read?
The IC50 was 0.0001 to 1 µM.

`COc1cccc(-c2[nH]c(C3(C)CCN(c4ncnc5[nH]c(-c6ccc(OC)nc6)cc45)CC3)nc2C)c1` [P-3169, 4-[4-[5-(3-methoxyphenyl)-4-methyl-1H-imidazol-2-yl]-4-methyl-1-piperidyl]-6-(6-methoxy-3-pyridyl)-7H-pyrrolo[2,3-d]pyrimidine] was tested. Which IC50 did it give?
Its IC50 is 0.0001 to 1 µM.

How did the IC50 turn out when `CCOc1ccc(-c2[nH]c(C3(C)CCN(c4ncnc5[nH]c(-c6cnn(C(F)F)c6)cc45)CC3)nc2C)cc1` [P-3170, 6-[1-(difluoromethyl)pyrazol-4-yl]-4-[4-[5-(4-ethoxyphenyl)-4-methyl-1H-imidazol-2-yl]-4-methyl-1-piperidyl]-7H-pyrrolo[2,3-d]pyrimidine] was run?
Its IC50 is 0.0001 to 1 µM.

With `Fc1ccc(-c2cc3c(N4CCC(c5nnc(-c6cccc(OC(F)F)c6)[nH]5)CC4)ncnc3[nH]2)cc1` [P-3204, 4-[4-[5-[3-(difluoromethoxy)phenyl]-4H-1,2,4-triazol-3-yl]-1-piperidyl]-6-(4-fluorophenyl)-7H-pyrrolo[2,3-d]pyrimidine] as the compound, how does the IC50 read?
Its IC50 is 10 to 300 µM.

How did the IC50 turn out when `COc1cc(-c2cc3c(N4CCC(c5nnc(-c6ccc(F)cc6)[nH]5)CC4)ncnc3[nH]2)ccn1` [P-3205, 4-[4-[5-(4-fluorophenyl)-4H-1,2,4-triazol-3-yl]-1-piperidyl]-6-(2-methoxy-4-pyridyl)-7H-pyrrolo[2,3-d]pyrimidine] was run?
Its IC50 is 10 to 300 µM.
